Results on 19 compounds are retold here after publication PMC3834327, “N ^6-Substituted AMPs Inhibit Mammalian Deoxynucleotide N-Hydrolase DNPH1” (PLoS ONE, 2013).

Experiment [1] addresses T1, rat DNPH1 (Rattus norvegicus, UniProt O35820).
T1 sequence (O35820 1-163): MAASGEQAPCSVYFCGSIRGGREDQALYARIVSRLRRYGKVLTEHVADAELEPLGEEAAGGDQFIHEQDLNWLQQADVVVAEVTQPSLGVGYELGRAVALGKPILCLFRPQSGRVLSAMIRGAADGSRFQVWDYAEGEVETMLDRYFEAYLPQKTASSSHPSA
Briefly: Isothermal titration calorimetry with rat DNPH1. As to conditions: for -T∆S / ∆G / ∆H / ∆S: ITC, T = 298 K, pH 6.0, rat DNPH1. Background: ITC needs no label: the signal is the heat of the interaction.

Experiment [2] deals with T2, human DNPH1 (Homo sapiens, UniProt O43598).
T2 sequence (O43598 1-174): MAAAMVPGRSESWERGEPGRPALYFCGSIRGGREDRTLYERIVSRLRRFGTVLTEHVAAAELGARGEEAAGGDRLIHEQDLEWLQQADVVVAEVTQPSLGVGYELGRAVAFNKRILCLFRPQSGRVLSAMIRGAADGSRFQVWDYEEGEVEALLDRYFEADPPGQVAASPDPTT
Briefly: Kinetic measurements: inhibition of human DNPH1 activity (dGMP substrate, guanine by RR-HPLC).

Experiment [3] addresses T2, human DNPH1. Briefly: Isothermal titration calorimetry with human DNPH1. To be noted: for -T∆S / ∆G / ∆H / ∆S: ITC, T = 298 K, pH 6.0, human DNPH1.
Experiment [4] concerns the target T1, rat DNPH1. Briefly: Kinetic measurements: inhibition of rat DNPH1 activity (dGMP substrate, spectrophotometric).
The target of experiment [5] is T1, rat DNPH1. The arrangement: made in house; host or cells: E. coli Bli5; method as in PMID 20962348. To be noted: cited from earlier work.
Experiment [6] has as its target T2, human DNPH1. Briefly: Kinetic parameters of human DNPH1 with 2'-deoxynucleoside 5'-monophosphates as substrates. The class given is biochemical. On the set-up: made in house; host or cells: E. coli Bli5. To be noted: substrate of human DNPH1; for Km: double reciprocal plots, five concentrations.

As usually defined, the Kd is the concentration at which binding is half-saturated. The term Ki denotes a dissociation constant, usually derived from enzyme kinetics or from competition with a known ligand. The low end stands for tighter binding, the high end for weaker binding. Take `CC(C)=CCNc1ncnc2c1ncn2[C@@H]1O[C@H](COP(=O)(O)O)[C@@H](O)[C@H]1O` [Compound 1, N ^6-Isopentenyl adenosine 5’-monophosphate]: at rat DNPH1 [1], the affinity, expressed as Kd, was 2600 ± 100 nM; the “-T∆S” value was determined as 8.3 kcal/mol; the “∆G” value is -7.6 kcal/mol; the “∆H” value was -15.9 ± 0.1 kcal/mol. The “∆S” value at rat DNPH1 [1] is reported as -27.9 cal.K^1.mol^-1. Also, on human DNPH1 [2], the Ki is 2000 nM. Moreover, at human DNPH1 [3], the dissociation constant (Kd) was found to be 2100 ± 200 nM, the “-T∆S” value was 2.4 kcal/mol, the “∆G” value is -7.8 kcal/mol and the “∆H” value was -10.2 ± 0.1 kcal/mol. In addition, on human DNPH1 [3], the “∆S” value is listed as -8.2 cal.K^-1.mol^-1. Also, the affinity on rat DNPH1 [4] corresponds to a Ki of 3300 nM.
As to `C/C(=C\CNc1ncnc2c1ncn2[C@@H]1O[C@H](COP(=O)(O)O)[C@@H](O)[C@H]1O)CO` [Compound 2, trans-zeatin riboside 5’-monophosphate], the inhibitory constant (Ki) is 8000 ± 1400 nM on human DNPH1 [2] and 15500 ± 1000 nM at rat DNPH1 [4]. The “decrease in activity compared to 1” value at rat DNPH1 [4] (hydroxyl group on the C4 chain) was “up to 5 fold”.
As for `C/C(=C/CNc1ncnc2c1ncn2[C@@H]1O[C@H](COP(=O)(O)O)[C@@H](O)[C@H]1O)CO` [Compound 3, cis-zeatin riboside 5’-monophosphate], the Ki on human DNPH1 [2] came to 5600 ± 800 nM; at rat DNPH1 [4], 6100 ± 1200 nM.
As for `CC(CO)CCNc1ncnc2c1ncn2[C@@H]1O[C@H](COP(=O)(O)O)[C@@H](O)[C@H]1O` (stereo partly shown) [Compound 4, dihydrozeatin riboside 5’-monophosphate], the inhibition constant (Ki) at human DNPH1 [2] came out at 3900 ± 1000 nM; on rat DNPH1 [4] it was 7600 ± 1500 nM.
For the compound `O=P(O)(O)OC[C@H]1O[C@@H](n2cnc3c(NCc4ccco4)ncnc32)[C@H](O)[C@@H]1O` [Compound 5, kinetin riboside 5’-monophosphate], at rat DNPH1 [1], binding was put at a Kd of 800 ± 100 nM, the “-T∆S” value worked out at 17.4 kcal/mol, the “∆G” value was -8.3 kcal/mol and the “∆H” value is -25.7 ± 0.1 kcal/mol. Besides, the “∆S” value at rat DNPH1 [1] is on record as -58.3 cal.K^1.mol^-1. On human DNPH1 [2], the affinity corresponds to a Ki of 2200 ± 200 nM. On human DNPH1 [3], the Kd was found to be 1400 ± 100 nM, the “-T∆S” value was 12.6 kcal/mol, the “∆G” value was -7.5 kcal/mol and the “∆H” value is -20.1 ± 0.1 kcal/mol. Besides, the “∆S” value at human DNPH1 [3] is recorded as -42.4 cal.K^-1.mol^-1. The Ki at rat DNPH1 [4] worked out at 1800 ± 700 nM.
Take `O=P(O)(O)OC[C@H]1O[C@@H](n2cnc3c(NC4CCCC4)ncnc32)[C@H](O)[C@@H]1O` [Compound 7, N ^6-cyclopentyladenosine 5’-monophosphate]: on rat DNPH1 [1], the equilibrium dissociation constant (Kd) was 600 ± 100 nM, the “-T∆S” value worked out at 2.3 kcal/mol, the “∆G” value was -8.5 kcal/mol and the “∆H” value is -10.7 ± 0.1 kcal/mol. At rat DNPH1 [1], the “∆S” value is listed as -7.5 cal.K^1.mol^-1. Also, at human DNPH1 [2], the Ki came out at 2600 ± 300 nM. Also, at human DNPH1 [3], binding was characterised by a dissociation constant (Kd) of 1400 ± 400 nM, the “-T∆S” value is -1.8 kcal/mol, the “∆G” value was -8.0 kcal/mol and the “∆H” value is -6.1 ± 0.1 kcal/mol. In addition, at human DNPH1 [3], the “∆S” value was 6.2 cal.K^-1.mol^-1. Also, at rat DNPH1 [4], the Ki came to 1200 ± 100 nM.
Turning to `O=P(O)(O)OC[C@H]1O[C@@H](n2cnc3c(NC4CCCCC4)ncnc32)[C@H](O)[C@@H]1O` [Compound 8, N ^6-Cyclohexyladenosine 5'-monophosphate], on rat DNPH1 [1], the Kd was 500 ± 100 nM, the “-T∆S” value was 11.2 kcal/mol, the “∆G” value is -8.7 kcal/mol and the “∆H” value is -19.9 ± 0.1 kcal/mol. Further, the “∆S” value at rat DNPH1 [1] is recorded as -37.6 cal.K^1.mol^-1. In addition, the Ki on human DNPH1 [2] amounted to 1600 ± 300 nM. On rat DNPH1 [4], this compound displayed a Ki of 1200 ± 100 nM.
On to `O=P(O)(O)OC[C@H]1O[C@@H](n2cnc3c(NC4CCC4)ncnc32)[C@H](O)[C@@H]1O` [Compound 9, N ^6-Cyclobutyladenosine 5'-monophosphate], for which the Ki at human DNPH1 [2] was 1500 ± 100 nM; on rat DNPH1 [4], 1300 ± 100 nM.
Take `O=P(O)(O)OC[C@H]1O[C@@H](n2cnc3c(NC4CC4)ncnc32)[C@H](O)[C@@H]1O` [Compound 10, N ^6-Cyclopropyladenosine 5'-monophosphate]: the Ki at human DNPH1 [2] is 2800 ± 600 nM; at rat DNPH1 [4] it was 2000 ± 600 nM.
Turning to `O=P(O)(O)OC[C@H]1O[C@@H](n2cnc3c(NCCc4ccccc4)ncnc32)[C@H](O)[C@@H]1O` [Compound 12, N ^6-Phenylethyladenosine 5'-monophosphate], the values for the Ki on human DNPH1 [2] and at rat DNPH1 [4] were 7800 ± 1000 nM and 2900 ± 300 nM, respectively.
Turning to `O=C(O)CCNc1ncnc2c1ncn2[C@@H]1O[C@H](COP(=O)(O)O)[C@@H](O)[C@H]1O` [Compound 13, N ^6-(2-carboxyethyl)adenosine 5'-monophosphate], the Ki at human DNPH1 [2] stood at 5600 ± 500 nM; at rat DNPH1 [4], 6200 ± 700 nM.
With `O=C(O)CCCNc1ncnc2c1ncn2[C@@H]1O[C@H](COP(=O)(O)O)[C@@H](O)[C@H]1O` [Compound 14, N ^6-(3-carboxypropyl)adenosine 5'-monophosphate], on rat DNPH1 [1], the Kd came out at 9400 ± 100 nM, the “-T∆S” value was determined as 5.5 kcal/mol, the “∆G” value was -6.9 kcal/mol and the “∆H” value was -12.4 ± 0.1 kcal/mol. Further, the “∆S” value on rat DNPH1 [1] is -18.5 cal.K^1.mol^-1. This compound also showed an inhibition constant Ki at human DNPH1 [2] of 2100 ± 200 nM. For the same compound, on human DNPH1 [3], the dissociation constant Kd was 5500 ± 100 nM, the “-T∆S” value was found to be 2.6 kcal/mol, the “∆G” value is -7.2 kcal/mol and the “∆H” value was -9.8 ± 0.1 kcal/mol. For the same compound, the “∆S” value on human DNPH1 [3] is -8.8 cal.K^-1.mol^-1. Also, the inhibitory constant (Ki) on rat DNPH1 [4] was 11200 nM.
With `Nc1nc2c(ncn2[C@@H]2O[C@H](COP(=O)(O)O)[C@@H](O)[C@H]2O)c(=O)[nH]1` [GMP], the free energy at rat DNPH1 [5] is -6.8 kcal/mol.
As usually defined, the kcat is the maximal rate divided by the concentration of active sites. As usually defined, the Km is the concentration of substrate that gives half-maximal velocity. Take `Nc1ncnc2c1ncn2[C@H]1C[C@H](O)[C@@H](COP(=O)(O)O)O1` [dAMP]: on human DNPH1 [6], the kcat is listed as 2.5 ± 0.8 10^-3 s^-1 and the Michaelis-Menten constant (Km) was determined as 97 ± 14 µM.
With `Nc1ccn([C@H]2C[C@H](O)[C@@H](COP(=O)(O)O)O2)c(=O)n1` [dCMP], at human DNPH1 [6], the catalytic constant (kcat) is 8.3 ± 0.4 10^-3 s^-1 and the Km was found to be 2500 ± 207 µM.
As for `Nc1nc2c(ncn2[C@H]2C[C@H](O)[C@@H](COP(=O)(O)O)O2)c(=O)[nH]1` [dGMP, 2’-Deoxyguanosine 5’-monophosphate], the catalytic constant (kcat) at human DNPH1 [6] was 0.002 s⁻¹.
`O=c1[nH]cnc2c1ncn2[C@H]1C[C@H](O)[C@@H](COP(=O)(O)O)O1` [dIMP]: on human DNPH1 [6], the kcat is on record as 1.6 ± 0.1 10^-3 s^-1 and the Km worked out at 104 ± 19 µM.
Regarding `Cc1cn([C@H]2C[C@H](O)[C@@H](COP(=O)(O)O)O2)c(=O)[nH]c1=O` [dTMP], at human DNPH1 [6], the kcat is recorded as 25 ± 2 10^-3 s^-1 and the Km was determined as 23000 ± 3050 µM.
With `O=c1ccn([C@H]2C[C@H](O)[C@@H](COP(=O)(O)O)O2)c(=O)[nH]1` [dUMP], on human DNPH1 [6], the kcat was 200 ± 20 10^-3 s^-1 and the Michaelis-Menten constant (Km) came out at 7800 ± 1760 µM.
